Structure (SMILES)	melting point [°C]
CC1Cc2ccc(N3C(=O)C4=C(CCCC4)C3=O)cc2O1 (stereo unspecified)	114 to 118
CCNc1cccc(NC(=O)COCC)c1C#N	84 to 87
CCNCC1CCN(c2c(F)cc3c(=O)c(C(=O)O)cn(CC(F)(F)F)c3c2F)C1 (stereo unspecified)	222 to 224
CC12CC(N3CCCCC3)CCC1CCC1C2CCC2(C)C(O)C(N3CCCCC3)CC12 (stereo unspecified)	176 to 181
CC(=O)OC1CSC(Oc2cccnc2-c2cncnc2)C(OC(C)=O)C1OC(C)=O (stereo unspecified)	205
O=S(=O)(O)c1ccccc1Nc1ccnc2cc(Cl)ccc12	> 300
Cc1ccc(Cl)cc1-n1c(CF)nc2ccc([N+](=O)[O-])cc2c1=O	191 to 192
CCC1C(C)=NN=C(c2ccc(OC)c(O)c2)c2cc(O)c(OC)cc21 (stereo unspecified)	143 to 145
COc1cc(P(c2ccccc2)c2ccccc2)c(Br)c(OC)n1	150 to 151
Nc1ccccc1NC(=O)Nc1ccc(-c2ccc(C(=O)N3CCN4CCC3CC4)o2)cc1	174
Oc1cccc(-n2nc(-c3ccccc3)c3cccnc32)c1	142 to 144
Cc1nc(C(O)C2CCc3c(C)c4ccccc4n3C2=O)c[nH]1 (stereo unspecified)	210 to 211
COc1cc(-c2cnc3[nH]cc(C(=O)C(C)C)c3n2)cc(OC)c1OC	189 to 190
N#CC(NC(=O)c1ccnc(Cl)c1)c1cccs1 (stereo unspecified)	123 to 125
CCOc1ccc(NC(=O)c2cnc3c(N)cccc3c2)cc1	187 to 189
CS(=O)(=O)c1ccc(-c2cnn(-c3ccc(F)c(Cl)c3)c(=O)c2C2CCCCC2)cc1	180 to 181
CCc1cn(C(CC)C(=O)N(C)C)nc1-c1ccccc1Cl (stereo unspecified)	60 to 63
CCCCn1c(=O)c2c(NC)n[nH]c2n(Cc2ccc(OC)cc2)c1=O	292 to 294
O=C(O)CCCCCCCCN1C(=O)C(c2ccccc2)N(c2ccccc2)C1=O (stereo unspecified)	112
O=C(NC1CN2CCC1CC2)c1cccc2oc(-c3ccc(Cl)cc3)nc12 (stereo unspecified)	194 to 196

Structure (SMILES)	melting point [°C]
CCCCCCCCCCCCCCCCCNC(=O)OCCSCCOC(=O)N(Cc1ccccn1)C(C)=O	62 to 63
CCCCCCCCCCCCCCCCCC(=O)NN(C(=O)CCCCCCCCCCCCCCCCC)C(=O)CCC(=O)NN	248 to 252
O=C1NC(=O)C(CC#Cc2ccc(Cl)cc2)(Sc2nc3cc(Cl)ccc3s2)S1 (stereo unspecified)	187 to 188
Cc1[nH]c(=O)ccc1-c1cccc(O)c1	285 to 288
COc1nc(N)nc2c1ncn2C1O[C@H](CO)C[C@@]1(C)O (stereo partly specified)	140 to 142
C#CCN1C(=O)c2ccccc2C1O (stereo unspecified)	157 to 159
CC(C)[C@H](NC(=O)[C@@H]1CCCN1C(=O)OCc1ccccc1)C(=O)O	132 to 134
COC(=O)CCCCCCCn1cc(-c2ccccc2)c(-c2ccccc2)nc1=O	80 to 83
Nc1nc2ccccc2c2c1ncn2CCOCc1cc2ccccc2o1	201 to 203
CCCSc1nc2cc(C)c(C)cc2[nH]1	122 to 123
S=C(NC1CCCc2sccc21)C1CCNCC1 (stereo unspecified)	102
Cc1c(CCCC(=O)O)cccc1C(=O)c1ccc(Cl)cc1	124
COC(=O)NCCNC(=O)c1cc(C)c(C(c2cc(F)ccc2F)S(=O)(=O)c2ccc(F)cc2)cn1 (stereo unspecified)	167 to 169
COc1ccc2c(=O)c(O)cn(C)c2c1	228
CCOC(=O)c1nnc2n1-c1ccccc1C(c1ccccc1)=NC2	205 to 206
CCCCCCN(CCCCCC)c1c(N[C@@H](Cc2cn(Cc3ccccc3)cn2)C(=O)O)c(=O)c1=O	75 to 80
CC(C)(C)C(NC(=O)COc1ccccc1)Nc1c(Nc2cccnc2Cl)c(=O)c1=O (stereo unspecified)	220 to 221
CCOCc1cc2ccccc2oc1=Nc1ccc(Cl)cc1	84 to 86
CCOc1ccc(CCNC(=O)/C=C/c2cccs2)cc1S(N)(=O)=O	55
CC(C)N1CCC(n2cc(C3=C(c4cn(C)c5ccccc45)C(=O)NC3=O)c3ccccc32)CC1	> 250

Other lines, results leading:

melting point [°C]	Structure (SMILES)
166 to 168	COc1cc(C(O)CN2CCC(O)(c3ccccc3)CC2)on1 (stereo unspecified)
57 to 58	CCC(=O)C(CCCOc1ccc(OCCCC(C(=O)CC)C(=O)CC)cc1)C(=O)CC
148 to 153	CCN(CCCc1c[nH]c2c(OC)cccc12)C1COc2c(F)ccc(C(N)=O)c2C1 (stereo unspecified)
254 to 256	O=C(Nc1cc(-n2cccn2)nc(-c2ccco2)n1)OCc1cccnc1
112 to 116	COCCOc1cccc(-c2ccnc3c(C(=O)c4cccs4)cnn23)c1
119 to 120	CN=C(ON1C(=O)CCC1=O)c1ccccc1
172 to 175	ON=C1CCC2(CC1)OC(c1ccccc1)c1ccccc12 (stereo unspecified)
138 to 140	COc1ccc2nccc(NC(=O)N3CCN(CCc4cnc5ccccc5n4)CC3)c2n1
87.5 to 88	CON(C)C(=O)Nc1ccc(OCc2ccc(C(C)C)cc2)cc1
54 to 56	CC(C)(Oc1ccc(CCC(O)c2ccc(-c3ccc(C(F)(F)F)cc3)s2)c(Cl)c1Cl)C(=O)O (stereo unspecified)
135 to 136	CCc1cc(C=C(C#N)C#N)ccc1N=C1SCC2(CCCC2)N1C1CCCC1
164 to 166	CC(C)(C)OC(=O)NC1CCCCCC=CC2CC2(C(=O)NS(=O)(=O)C2CC2)NC(=O)C2CC(OC(=O)c3ccc(C#N)cc3)CN2C1=O (stereo unspecified)
158 to 161	CN(CCc1cccc(O)c1)c1cnc(-c2ccccc2)c(-c2ccccc2)n1
103 to 104	COCC(C1CC1)n1cc(Cl)nc(Nc2cc(C)c(OC(F)F)nc2C)c1=O (stereo unspecified)
236 to 238	Brc1cnc2c(c1)ncn2-c1cccc(-n2ccnc2)c1
132 to 134	CC(C)CC1(C(CCNC(=O)c2ccc(F)c(F)c2)C(=O)NO)CCN(CCc2ccccc2)C1=O (stereo unspecified)

melting point [°C]	Structure (SMILES)
83 to 87	CSc1nc(Cl)c(C#N)s1
279 to 281	COc1cccc2c(NCc3ccccc3C)nc(Cl)nc12
102 to 104	CC(C)(C)c1ccc(C[C@@H](C(=O)O)[C@@H](O)c2ccc(F)cc2)cc1 (racemic)
123 to 126	O=S(Cc1ccccc1)c1ccccc1 (stereo unspecified)
156 to 160	COC(=O)Cn1cnc(N2CCc3ccccc3CC2)c(C#N)c1=O
86 to 87	O=C(CCl)CCCCc1ccc(CCCCC(=O)CCl)cc1
42 to 43.5	CCCN(CCC)c1c([N+](=O)[O-])cc(C)c(C)c1[N+](=O)[O-]
157 to 160	O=C(O)c1ccc(OCCCCCCc2cccc(O)c2O)c(Cl)c1
199 to 202	CCc1nc(-c2ncn3c4ccccc4c(=O)n(C)c23)no1
73 to 75	CC(=O)OCCc1cc2c(s1)CCC1CC(=O)N(c3ccc(C)cc3)N=C21 (stereo unspecified)
129 to 130	COc1cccc(C(=O)OCC2(COC(=O)c3cccc(OC)c3)c3ccccc3-c3ccccc32)c1
295 to 300	Cc1ccc2c([N+](=O)[O-])cc([N+](=O)[O-])c(O)c2n1
71 to 72	C#CCNc1ccc([N+](=O)[O-])cc1C(F)(F)F
192	Cn1cc(-c2cccc(Cl)c2)c(=O)c(-c2cccc(Br)c2)c1
106	CCOC(=O)N1CCC(=C2c3ccccc3CCn3ncnc32)CC1
